Measurements as given in the NIST ThermoML archive (doi:10.1016/j.fluid.2017.12.001).
± gives the expanded uncertainty stated by the source.

Assays:
[1] = 101.33 kPa, Liquid; for viscosity: Concentric cylinders viscometry; for mass density: Vibrating tube method; for speed of sound: Single path-length method
[2] = xn = mol fraction of the nth substance listed; details: 100.9 kPa, Liquid, Concentric cylinders viscometry, x2 = 0

O [water]
[1]
Details	mass density [kg/m3]	speed of sound [m/s]	viscosity [mPa·s]
283 K	999.72 ± 0.05	–	1.31 ± 0.01
286 K	999.46 ± 0.05	1457 ± 1	1.23 ± 0.01
288 K	–	–	1.15 ± 0.01
291 K	998.69 ± 0.05	1475 ± 1	1.08 ± 0.01
293 K	–	–	1.02 ± 0.01
296 K	997.66 ± 0.05	1490 ± 1	0.96 ± 0.01
298 K	–	–	0.9 ± 0.01
301 K	996.37 ± 0.05	1503 ± 1	0.85 ± 0.01
303 K	–	–	0.8 ± 0.01
306 K	994.87 ± 0.05	1515 ± 1	0.76 ± 0.01
308 K	–	–	0.72 ± 0.01
311 K	993.15 ± 0.06	1525 ± 1	0.69 ± 0.01
313 K	–	1529 ± 1	0.65 ± 0.01
316 K	991.23 ± 0.06	1533 ± 1	0.62 ± 0.01
318 K	–	1537 ± 1	0.59 ± 0.01
321 K	989.15 ± 0.06	1540 ± 1	0.57 ± 0.01
323 K	988.03 ± 0.06	–	0.54 ± 0.01

O [water] + CCCC(=O)[O-].CC[NH2+]CC
[2]
Details	viscosity [mPa·s]
283.15 K	1.31 ± 0.02
285.65 K	1.23 ± 0.02
288.15 K	1.15 ± 0.02
290.65 K	1.08 ± 0.02
293.15 K	1.02 ± 0.02
295.65 K	0.96 ± 0.02
298.15 K	0.9 ± 0.02
300.65 K	0.85 ± 0.02
303.15 K	0.8 ± 0.02
305.65 K	0.76 ± 0.02
308.15 K	0.72 ± 0.02
310.65 K	0.69 ± 0.02
313.15 K	0.65 ± 0.02
315.65 K	0.62 ± 0.02
318.15 K	0.59 ± 0.02
320.65 K	0.57 ± 0.02
323.15 K	0.54 ± 0.02
325.65 K	0.51 ± 0.02
328.15 K	0.49 ± 0.02
330.65 K	0.47 ± 0.02
333.15 K	0.45 ± 0.02
335.65 K	0.43 ± 0.02
338.15 K	0.41 ± 0.02
340.65 K	0.39 ± 0.02
343.15 K	0.37 ± 0.02
